Data reported in ChEMBL document CHEMBL5665443, “Enzyme Inhibitor Single Concentration assay results for EUbOPEN Chemogenomics Library” (2024).

Experiments:
Conditions in all cases: Compound Concentration 10.0 uM, Hit No
[1] = molecular target: Methyl-CpG-binding domain protein 4 (Homo sapiens) (UniProt O95243);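 note: MBD4 activity read as fluorescence at 594 nm from cleavage and release of a quenched duplex DNA oligonucleotide, with APE1 coupled to incise the strand and raise turnover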
Description: Inhibition of MBD4 by quantifying inhibition of MBD4-mediated cleavage and dissociation of quenched duplex DNA oligonucleotides, measured as fluorescence at 594 nm. To generate a functional strand incision and increase turn-over this assay is coupled to APE1.

[2] = molecular target: Endonuclease 8-like 1 (Homo sapiens) (UniProt Q96FI4);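 note: fluorescence at 594 nm from quenched duplex DNA oligonucleotides released by NEIL1 cleavage and strand separation, reported as reduction of this enzyme activity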
Endonuclease 8-like 1 (Homo sapiens), sequence (Q96FI4 whole entry): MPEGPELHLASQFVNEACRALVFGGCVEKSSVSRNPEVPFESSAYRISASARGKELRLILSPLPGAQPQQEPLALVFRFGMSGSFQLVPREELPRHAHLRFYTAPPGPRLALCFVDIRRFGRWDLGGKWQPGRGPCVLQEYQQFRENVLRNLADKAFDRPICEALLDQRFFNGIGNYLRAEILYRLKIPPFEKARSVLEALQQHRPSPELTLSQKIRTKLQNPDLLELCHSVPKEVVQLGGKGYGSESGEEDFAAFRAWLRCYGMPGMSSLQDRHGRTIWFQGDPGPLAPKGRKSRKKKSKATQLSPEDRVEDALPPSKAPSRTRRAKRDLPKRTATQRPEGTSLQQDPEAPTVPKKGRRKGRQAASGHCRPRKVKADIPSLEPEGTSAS
Description: Inhibition of NEIL1 by quantifying inhibition of NEIL1-mediated cleavage and dissociation of quenched duplex DNA oligonucleotides, measured as fluorescence at 594 nm.

[3] = molecular target: G/T mismatch-specific thymine DNA glycosylase (Homo sapiens) (UniProt Q13569);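 note: human TDG cleavage of quenched duplex DNA oligonucleotides coupled to APE1, strand release read as fluorescence at 594 nm, inhibition of TDG activity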
G/T mismatch-specific thymine DNA glycosylase (Homo sapiens), sequence (Q13569 whole entry): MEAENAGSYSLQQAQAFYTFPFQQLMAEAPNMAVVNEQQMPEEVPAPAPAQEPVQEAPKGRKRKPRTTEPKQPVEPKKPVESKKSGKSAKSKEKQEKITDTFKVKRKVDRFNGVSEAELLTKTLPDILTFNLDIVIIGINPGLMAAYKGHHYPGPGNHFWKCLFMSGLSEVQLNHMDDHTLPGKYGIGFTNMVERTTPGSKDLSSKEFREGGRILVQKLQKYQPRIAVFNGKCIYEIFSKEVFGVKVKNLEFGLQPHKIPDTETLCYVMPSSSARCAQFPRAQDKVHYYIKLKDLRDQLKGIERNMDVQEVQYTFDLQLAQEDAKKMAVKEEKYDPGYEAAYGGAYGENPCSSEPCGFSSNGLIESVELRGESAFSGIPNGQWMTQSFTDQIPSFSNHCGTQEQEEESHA
Description: Inhibition of TDG by quantifying inhibition of TDG-mediated cleavage and dissociation of quenched duplex DNA oligonucleotides, measured as fluorescence at 594 nm. To generate a functional strand incision and increase turn-over this assay is coupled to APE1.

[4] = molecular target: T1, Endonuclease III-like protein 1 (Homo sapiens) (UniProt P78549);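 note: enzyme assay tracking NTHL1 cutting and release of a quenched double-stranded DNA oligo substrate, read as fluorescence at 594 nm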
T1 sequence (whole entry): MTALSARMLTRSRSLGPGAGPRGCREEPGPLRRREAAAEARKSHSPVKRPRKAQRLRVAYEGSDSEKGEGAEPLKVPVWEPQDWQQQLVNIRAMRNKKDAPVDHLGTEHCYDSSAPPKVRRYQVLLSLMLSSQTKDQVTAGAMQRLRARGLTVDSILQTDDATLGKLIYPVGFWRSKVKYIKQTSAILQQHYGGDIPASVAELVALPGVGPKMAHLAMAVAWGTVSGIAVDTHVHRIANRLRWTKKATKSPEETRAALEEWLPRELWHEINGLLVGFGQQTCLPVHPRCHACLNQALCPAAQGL
Description: Inhibition of NTHL1 by quantifying inhibition of NTHL1-mediated cleavage and dissociation of quenched duplex DNA oligonucleotides, measured as fluorescence at 594 nm.

[5] = molecular target: Uracil-DNA glycosylase (Homo sapiens) (UniProt P13051);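 note: UNG excision on a quenched double-stranded DNA oligo probe, with APE1 added for strand incision and turnover, read as fluorescence at 594 nm as strands separate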
Uracil-DNA glycosylase (Homo sapiens), sequence (P13051 whole entry): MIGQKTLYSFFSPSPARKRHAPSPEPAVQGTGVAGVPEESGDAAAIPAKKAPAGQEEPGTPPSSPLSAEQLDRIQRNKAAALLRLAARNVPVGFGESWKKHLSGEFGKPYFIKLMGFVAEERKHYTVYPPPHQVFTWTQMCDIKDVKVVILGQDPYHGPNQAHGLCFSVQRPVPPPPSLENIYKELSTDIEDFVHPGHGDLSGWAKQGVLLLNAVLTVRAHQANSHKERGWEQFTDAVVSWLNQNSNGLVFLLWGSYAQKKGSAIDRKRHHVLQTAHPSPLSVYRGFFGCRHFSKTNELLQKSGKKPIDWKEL
Description: Inhibition of UNG by quantifying inhibition of UNG-mediated cleavage and dissociation of quenched duplex DNA oligonucleotides, measured as fluorescence at 594 nm. To generate a functional strand incision and increase turn-over this assay is coupled to APE1.

[6] = molecular target: DNA-3-methyladenine glycosylase (Homo sapiens) (UniProt P29372);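 note: enzyme assay where MPG cuts a quenched duplex DNA oligonucleotide probe, paired with APE1 for strand incision and turnover, read as fluorescence at 594 nm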
DNA-3-methyladenine glycosylase (Homo sapiens), sequence (P29372 whole entry): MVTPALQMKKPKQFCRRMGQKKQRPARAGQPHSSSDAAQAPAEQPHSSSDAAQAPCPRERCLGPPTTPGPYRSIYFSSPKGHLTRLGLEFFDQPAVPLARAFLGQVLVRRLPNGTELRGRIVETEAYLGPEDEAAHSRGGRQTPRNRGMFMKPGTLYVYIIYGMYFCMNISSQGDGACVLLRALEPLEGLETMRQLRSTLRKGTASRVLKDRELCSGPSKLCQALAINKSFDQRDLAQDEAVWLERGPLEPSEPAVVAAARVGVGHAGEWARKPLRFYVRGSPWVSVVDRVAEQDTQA
Description: Inhibition of MPG by quantifying inhibition of MPG-mediated cleavage and dissociation of quenched duplex DNA oligonucleotides, measured as fluorescence at 594 nm. To generate a functional strand incision and increase turn-over this assay is coupled to APE1.

[7] = molecular target: N-glycosylase/DNA lyase (Homo sapiens) (UniProt O15527);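 note: OGG1 cleavage of a quenched duplex DNA oligonucleotide, coupled to APE1 for strand incision, read as fluorescence at 594 nm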
N-glycosylase/DNA lyase (Homo sapiens), sequence (O15527 whole entry): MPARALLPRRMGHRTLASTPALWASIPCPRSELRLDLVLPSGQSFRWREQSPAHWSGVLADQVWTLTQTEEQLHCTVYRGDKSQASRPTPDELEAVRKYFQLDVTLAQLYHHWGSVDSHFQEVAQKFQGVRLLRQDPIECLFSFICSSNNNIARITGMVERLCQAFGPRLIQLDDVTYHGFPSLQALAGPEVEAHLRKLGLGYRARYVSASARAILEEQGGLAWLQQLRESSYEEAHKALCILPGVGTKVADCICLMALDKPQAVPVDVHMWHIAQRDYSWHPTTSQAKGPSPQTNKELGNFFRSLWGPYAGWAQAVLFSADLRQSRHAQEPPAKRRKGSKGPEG
Description: Inhibition of OGG1 by quantifying inhibition of OGG1-mediated cleavage and dissociation of quenched duplex DNA oligonucleotides, measured as fluorescence at 594 nm. To generate a functional strand incision and increase turn-over this assay is coupled to APE1.

[8] = molecular target: T2, Single-strand selective monofunctional uracil DNA glycosylase (Homo sapiens) (UniProt Q53HV7);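 note: enzymatic SMUG1 assay coupled with APE1, reading fluorescence at 594 nm released when a quenched double-stranded DNA oligonucleotide substrate is cleaved and separated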
T2 sequence (whole entry): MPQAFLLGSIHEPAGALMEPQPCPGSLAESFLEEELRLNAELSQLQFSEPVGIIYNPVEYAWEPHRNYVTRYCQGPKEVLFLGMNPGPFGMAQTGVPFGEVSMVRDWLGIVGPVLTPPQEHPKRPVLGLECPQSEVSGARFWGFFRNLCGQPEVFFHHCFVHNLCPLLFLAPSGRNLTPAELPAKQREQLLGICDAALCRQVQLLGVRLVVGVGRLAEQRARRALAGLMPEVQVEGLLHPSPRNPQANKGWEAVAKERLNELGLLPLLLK
Description: Inhibition of SMUG1 by quantifying inhibition of SMUG1-mediated cleavage and dissociation of quenched duplex DNA oligonucleotides, measured as fluorescence at 594 nm. To generate a functional strand incision and increase turn-over this assay is coupled to APE1.

[9] = molecular target: T3, Endonuclease 8-like 2 (Homo sapiens) (UniProt Q969S2);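 note: fluorescence at 594 nm reports NEIL2 cutting and release of a quenched double-stranded DNA oligo substrate, reduced signal read as inhibition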
T3 sequence (whole entry): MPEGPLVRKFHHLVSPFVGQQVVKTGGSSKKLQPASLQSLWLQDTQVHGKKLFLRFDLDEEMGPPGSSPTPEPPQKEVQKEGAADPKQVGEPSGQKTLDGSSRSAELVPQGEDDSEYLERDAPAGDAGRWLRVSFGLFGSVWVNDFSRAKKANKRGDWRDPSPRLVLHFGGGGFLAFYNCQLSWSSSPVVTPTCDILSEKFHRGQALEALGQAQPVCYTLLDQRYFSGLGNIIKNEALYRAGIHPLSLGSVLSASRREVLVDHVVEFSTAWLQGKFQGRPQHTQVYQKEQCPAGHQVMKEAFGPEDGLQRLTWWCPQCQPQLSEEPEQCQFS
Description: Inhibition of NEIL2 by quantifying inhibition of NEIL2-mediated cleavage and dissociation of quenched duplex DNA oligonucleotides, measured as fluorescence at 594 nm.

Methyl-CpG-binding domain protein 4 (Homo sapiens), sequence (O95243 whole entry, the tested form may be a part): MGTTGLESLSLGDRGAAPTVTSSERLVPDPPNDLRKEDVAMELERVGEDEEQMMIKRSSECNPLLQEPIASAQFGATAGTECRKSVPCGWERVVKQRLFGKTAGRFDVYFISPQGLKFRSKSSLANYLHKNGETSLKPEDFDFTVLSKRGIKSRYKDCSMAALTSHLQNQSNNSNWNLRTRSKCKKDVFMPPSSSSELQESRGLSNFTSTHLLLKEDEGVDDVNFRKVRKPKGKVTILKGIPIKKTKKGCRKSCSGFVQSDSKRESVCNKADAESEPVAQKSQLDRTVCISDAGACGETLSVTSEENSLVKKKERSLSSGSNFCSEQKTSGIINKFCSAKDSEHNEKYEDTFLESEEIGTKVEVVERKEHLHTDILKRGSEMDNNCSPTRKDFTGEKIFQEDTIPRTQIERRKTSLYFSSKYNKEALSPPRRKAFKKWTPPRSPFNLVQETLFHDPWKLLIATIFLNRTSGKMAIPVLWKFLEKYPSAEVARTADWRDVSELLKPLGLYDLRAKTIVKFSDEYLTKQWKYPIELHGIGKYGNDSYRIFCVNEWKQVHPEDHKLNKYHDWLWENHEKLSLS

CC(C)(C)NCC(O)COc1cccc2[nH]c(=O)[nH]c12 (centres undefined)
inhibition [1]: 12.3% | inhibition [2]: 3.06% | inhibition [3]: 5.99% | inhibition [4]: -6.87% | inhibition [5]: -8.82% | inhibition [6]: 4.34% | inhibition [7]: -2.11% | inhibition [8]: 12.3% | inhibition [9]: 10.5%

COC(=O)C1=C(C)NC(C)=C(C(=O)OC(C)C)C1c1cccc2nonc12 (centres undefined)
inhibition [1]: 3.95% | inhibition [2]: 1.94% | inhibition [3]: 5.72% | inhibition [4]: 15.4% | inhibition [5]: -3.24% | inhibition [6]: -0.967% | inhibition [7]: -6.65% | inhibition [8]: 0.608% | inhibition [9]: -0.86%

CN1C[C@@H](NS(=O)(=O)N(C)C)C[C@@H]2c3cccc4c3c(cn4C)C[C@H]21
inhibition [1]: 12.1% | inhibition [2]: 13.1% | inhibition [3]: 7.57% | inhibition [4]: -8.51% | inhibition [5]: -6.05% | inhibition [6]: 11.2% | inhibition [7]: -5.21% | inhibition [8]: 2.87% | inhibition [9]: -0.605%

O=S1(=O)c2cccc3cccc(c23)N1CCCN1CCN(c2ccc(F)cc2)CC1
inhibition [2]: -4.8% | inhibition [3]: 19% | inhibition [4]: 18.1% | inhibition [5]: -2.78% | inhibition [6]: -8.54% | inhibition [7]: 7.99% | inhibition [8]: 12.8% | inhibition [9]: -0.483%

O=C(N[C@H]1CN2CCC1CC2)c1ccc(Cl)cc1
inhibition [1]: 12.6% | inhibition [2]: 1.79% | inhibition [3]: 21.4% | inhibition [4]: 15.4% | inhibition [5]: -1.13% | inhibition [6]: -7.18% | inhibition [8]: 3.71% | inhibition [9]: 3.98%

CCN(CC)S(=O)(=O)Nc1cccc(-c2ccc3c(NC(=O)C4CC4)n[nH]c3c2)c1
inhibition [1]: -2.59% | inhibition [2]: 9.38% | inhibition [3]: 45.5% | inhibition [4]: 9.15% | inhibition [5]: 2.23% | inhibition [6]: 3.86% | inhibition [7]: -4.92% | inhibition [8]: 11.9% | inhibition [9]: 5.35%

Cc1nc(C(=O)N2CCC[C@H]2Cc2nnc(-c3ccccc3)o2)c(-c2ccccc2F)s1
inhibition [1]: -9.49% | inhibition [2]: 2.46% | inhibition [3]: 15% | inhibition [4]: 4.86% | inhibition [5]: -9.58% | inhibition [6]: -2.02% | inhibition [7]: -0.535% | inhibition [8]: -4.93% | inhibition [9]: -1.23%

COC1CCN(c2cccc(-c3cc(NC(C)=O)nc(-n4nc(C)cc4C)n3)n2)CC1
inhibition [1]: -4.26% | inhibition [3]: -3.39% | inhibition [4]: 12.2% | inhibition [6]: 6.5% | inhibition [7]: -4.31% | inhibition [9]: 2.26%

Cc1cc(NC(=O)Nc2ccccc2)n(-c2ccccc2)n1
inhibition [1]: 0.993% | inhibition [2]: 1.64% | inhibition [3]: 5.78% | inhibition [4]: 10.5% | inhibition [5]: 1.74% | inhibition [6]: 3.86% | inhibition [8]: 0.777% | inhibition [9]: 7.29%

COc1ccc(Cl)cc1[C@]1(F)C(=O)Nc2cc(C(F)(F)F)ccc21
inhibition [1]: -4.08% | inhibition [2]: 3.12% | inhibition [3]: -9.73% | inhibition [4]: 6.35% | inhibition [5]: -2.84% | inhibition [6]: -5.04% | inhibition [7]: 4.52% | inhibition [8]: 8.52% | inhibition [9]: 17%

COc1ccc(-n2nc3c4ccccc4[nH]cc-3c2=O)cc1
inhibition [1]: 1.12% | inhibition [2]: 0.00926% | inhibition [3]: -5.16% | inhibition [4]: -6.86% | inhibition [5]: -4.77% | inhibition [6]: -3.24% | inhibition [7]: -8.16% | inhibition [8]: -6.96%

Clc1cccc(-n2nnnc2NCc2ccccc2Oc2ccccn2)c1Cl
inhibition [1]: 4.1% | inhibition [2]: 4.75% | inhibition [3]: 0.87% | inhibition [4]: 4.7% | inhibition [5]: -1.01% | inhibition [6]: 12.9% | inhibition [7]: -2.45% | inhibition [8]: 6.2% | inhibition [9]: -1.88%

CCN(CC)CCCCC1CCN(CC(=O)N2c3ccccc3C(=O)Nc3cccnc32)CC1
inhibition [1]: -4.84% | inhibition [2]: -7.47% | inhibition [3]: 10.1% | inhibition [4]: 12.2% | inhibition [6]: -8.23% | inhibition [7]: -2.09% | inhibition [8]: 1.37% | inhibition [9]: 12.7%

CCCCN(CC)c1nc(C)nc2c1c(C)cn2-c1c(C)cc(C)cc1C
inhibition [1]: -9.26% | inhibition [2]: -1.24% | inhibition [3]: 13.7% | inhibition [4]: 19.5% | inhibition [5]: -4.91% | inhibition [6]: 6% | inhibition [7]: 2.6% | inhibition [8]: -0.0333% | inhibition [9]: 9%

Cc1c(C(=O)NN2CCCCC2)nn(-c2ccc(Cl)cc2Cl)c1-c1ccc(Cl)cc1
inhibition [1]: 16.2% | inhibition [2]: -1.09% | inhibition [3]: 19.2% | inhibition [4]: -0.275% | inhibition [5]: 1.35% | inhibition [6]: 15.3% | inhibition [7]: 9% | inhibition [8]: 11.7% | inhibition [9]: 0.764%

CC1(C)CC(CN2CCC(F)(CNC(=O)c3cc(Cl)cc(Cl)c3)CC2)CCO1 (centres undefined)
inhibition [1]: 12.4% | inhibition [2]: 6.23% | inhibition [3]: 12.8% | inhibition [4]: -3.56% | inhibition [5]: -1.24% | inhibition [6]: 9.94% | inhibition [8]: 8.24% | inhibition [9]: 6.78%

O=C1NCCc2c(OCCCCN3CCCCC3)cccc21
inhibition [1]: 2.31% | inhibition [2]: 5.05% | inhibition [3]: -4.06% | inhibition [4]: 23.7% | inhibition [5]: -4.57% | inhibition [6]: -7.35% | inhibition [7]: -7.4% | inhibition [9]: 3.98%

CCOc1ccc(S(=O)(=O)Nc2ccc(Cl)cc2C#Cc2cnc(C(=O)O)cc2OC)c2ncccc12
inhibition [1]: 60.3% | inhibition [2]: 7.43% | inhibition [3]: 51.4% | inhibition [4]: -3.26% | inhibition [5]: 7.85% | inhibition [6]: 14.2% | inhibition [7]: 7.9% | inhibition [8]: 5.88%

O=C1CSC(=O)N1C(CCc1ccncc1)COc1ccc(-c2cccc([N+](=O)[O-])c2)cc1 (centres undefined)
inhibition [2]: 2.68% | inhibition [3]: -8.91% | inhibition [4]: 17.1% | inhibition [5]: -2.95% | inhibition [6]: -5.43% | inhibition [7]: -1.32% | inhibition [8]: 6.99% | inhibition [9]: 3.73%

CCCN1CCO[C@H]2c3cc(O)ccc3OC[C@@H]21
inhibition [1]: -3.57% | inhibition [2]: 8.1% | inhibition [3]: -3.98% | inhibition [4]: 7.05% | inhibition [6]: 3.27% | inhibition [7]: -4.1% | inhibition [9]: -7.97%

Cc1c(C(=O)NC2CCCCC2)sc2nc3ccc(N)cc3n12
inhibition [1]: 7.24% | inhibition [2]: -4.65% | inhibition [3]: 11.8% | inhibition [4]: 7.79% | inhibition [6]: -4.14% | inhibition [7]: -4.66% | inhibition [8]: 8.2% | inhibition [9]: 1.76%

Cc1cc(-c2nncc3c(C(C)(C)C)c(OCc4ncnn4C)nn23)no1
inhibition [1]: -4.07% | inhibition [2]: -1.32% | inhibition [3]: -4.49% | inhibition [4]: 1.39% | inhibition [5]: -3.18% | inhibition [6]: -9.01% | inhibition [8]: -0.184% | inhibition [9]: -4.17%

CN1CCC(=C2c3ccccc3CC(=O)c3sccc32)CC1
inhibition [1]: -9.08% | inhibition [2]: 8.25% | inhibition [3]: 2.08% | inhibition [4]: -2.47% | inhibition [6]: -7.46% | inhibition [7]: -5.18% | inhibition [8]: -4.83% | inhibition [9]: 2.26%

C[C@H](N)Cn1ccc2cc(F)c(Cl)cc21
inhibition [1]: 4.93% | inhibition [3]: -0.256% | inhibition [4]: 6.35% | inhibition [5]: -6.21% | inhibition [6]: -5.64%

c1nc(CC2CCNCC2)c[nH]1
inhibition [1]: -3.22% | inhibition [2]: 7.21% | inhibition [3]: 10.2% | inhibition [4]: 7.05% | inhibition [6]: -7.11% | inhibition [7]: -4.12% | inhibition [9]: -0.983%

COc1ccccc1-n1nc(C2CC(C)(C)OC(C)(C)C2)cc1-c1ccc(Cl)cc1
inhibition [1]: -1.99% | inhibition [2]: 11.3% | inhibition [3]: -6.29% | inhibition [4]: 12.1% | inhibition [5]: -3.03% | inhibition [6]: -7.01% | inhibition [9]: -4.68%

CC[C@@H](C[C@H]1COC(N)=N1)c1ccccc1
inhibition [1]: 4.05% | inhibition [2]: 8.31% | inhibition [3]: 11.1% | inhibition [4]: 17.9% | inhibition [5]: -3.91% | inhibition [6]: -5.21% | inhibition [9]: -1.88%

O=C(NCc1cccnc1OCC(F)(F)F)c1cncc(-c2ccc(Cl)cc2)c1
inhibition [1]: -9.96% | inhibition [2]: -4.73% | inhibition [3]: 3.98% | inhibition [4]: 0.568% | inhibition [5]: -5.85% | inhibition [6]: 2% | inhibition [8]: -3.23% | inhibition [9]: -0.35%
